Measured values: ChEMBL document CHEMBL3351475, “Synthesis and anti-tumor activity of glycosyl oxadiazoles derivatives” (Bioorg Med Chem Lett, 2014)

Columns and labels:
MDA-MB-231 [1] = experiment: Growth inhibition of human MDA-MB-231 cells after 24 hrs by MTT assay; assay type: functional, cell-based; settings: MDA-MB-231, 24 h
MDA-MB-231 [2] = experiment: Growth inhibition of human MDA-MB-231 cells at 100 uM after 24 hrs by MTT assay; assay type: functional; settings: MDA-MB-231, 24 h

SMILES	IC50 (MDA-MB-231 [1]) [nM]	inhibition at 100 µM (MDA-MB-231 [2]) [%]
COc1ccc(-c2nnc(-c3ccc(O[C@@H]4O[C@H](COC(C)=O)[C@@H](OC(C)=O)[C@H](OC(C)=O)[C@H]4OC(C)=O)cc3)o2)cc1	9230	26
CC(=O)OC[C@H]1O[C@@H](Oc2ccc(-c3nnc(-c4ccc(C)cc4)o3)cc2)[C@H](OC(C)=O)[C@@H](OC(C)=O)[C@@H]1OC(C)=O	–	13.1
O=C(N/N=C/c1cccc([N+](=O)[O-])c1)c1ccc(O[C@@H]2O[C@H](CO)[C@@H](O)[C@H](O)[C@H]2O)cc1	–	6.23
O=C(N/N=C/C1CCCCC1)c1ccc(O[C@@H]2O[C@H](CO)[C@@H](O)[C@H](O)[C@H]2O)cc1	–	0.88
CC(=O)OC[C@H]1O[C@@H](Oc2ccc(-c3nnc(-c4cccc([N+](=O)[O-])c4)o3)cc2)[C@H](OC(C)=O)[C@@H](OC(C)=O)[C@@H]1OC(C)=O	3600	40.1
O=C(N/N=C/c1ccc(Cl)cc1)c1ccc(O[C@@H]2O[C@H](CO)[C@@H](O)[C@H](O)[C@H]2O)cc1 (stereo in doubt)	–	2.26
CC(=O)OC[C@H]1O[C@@H](Oc2ccc(-c3nnc(-c4ccccc4)o3)cc2)[C@H](OC(C)=O)[C@@H](OC(C)=O)[C@@H]1OC(C)=O	5970	29.5
CC(=O)OC[C@H]1O[C@@H](Oc2ccc(-c3nnc(-c4ccc(Cl)cc4)o3)cc2)[C@H](OC(C)=O)[C@@H](OC(C)=O)[C@@H]1OC(C)=O	890	42.1
CC(=O)OC[C@H]1O[C@@H](Oc2ccc(-c3nnc(-c4cccc(C#N)c4)o3)cc2)[C@H](OC(C)=O)[C@@H](OC(C)=O)[C@@H]1OC(C)=O	1080	44.1
O=C(N/N=C/c1ccccc1)c1ccc(O[C@@H]2O[C@H](CO)[C@@H](O)[C@H](O)[C@H]2O)cc1	–	3.56
CCCCC/C=N/NC(=O)c1ccc(O[C@@H]2O[C@H](CO)[C@@H](O)[C@H](O)[C@H]2O)cc1	–	11
O=C(N/N=C/c1ccc(F)cc1)c1ccc(O[C@@H]2O[C@H](CO)[C@@H](O)[C@H](O)[C@H]2O)cc1 (stereo in doubt)	–	9.91
Cc1ccc(/C=N/NC(=O)c2ccc(O[C@@H]3O[C@H](CO)[C@@H](O)[C@H](O)[C@H]3O)cc2)cc1 (stereo in doubt)	–	9.28
N#Cc1cccc(/C=N/NC(=O)c2ccc(O[C@@H]3O[C@H](CO)[C@@H](O)[C@H](O)[C@H]3O)cc2)c1	–	6.17
COc1ccc(/C=N/NC(=O)c2ccc(O[C@@H]3O[C@H](CO)[C@@H](O)[C@H](O)[C@H]3O)cc2)cc1 (stereo in doubt)	–	11.3
CCCCCc1nnc(-c2ccc(O[C@@H]3O[C@H](COC(C)=O)[C@@H](OC(C)=O)[C@H](OC(C)=O)[C@H]3OC(C)=O)cc2)o1	8340	21.5
CC(=O)OC[C@H]1O[C@@H](Oc2ccc(-c3nnc(C(C)C)o3)cc2)[C@H](OC(C)=O)[C@@H](OC(C)=O)[C@@H]1OC(C)=O	–	11.9
CN(CCOc1ccc(CC2SC(=O)NC2=O)cc1)c1ccccn1 (stereo not given) [ROSIGLITAZONE]	5230	34.2
CC(C)/C=N/NC(=O)c1ccc(O[C@@H]2O[C@H](CO)[C@@H](O)[C@H](O)[C@H]2O)cc1	–	1.7
CC(=O)OC[C@H]1O[C@@H](Oc2ccc(-c3nnc(C4CCCCC4)o3)cc2)[C@H](OC(C)=O)[C@@H](OC(C)=O)[C@@H]1OC(C)=O	–	11.6
CC(=O)OC[C@H]1O[C@@H](Oc2ccc(-c3nnc(-c4cccc(Cl)c4)o3)cc2)[C@H](OC(C)=O)[C@@H](OC(C)=O)[C@@H]1OC(C)=O	1350	36.7
O=C(N/N=C/c1ccc([N+](=O)[O-])cc1)c1ccc(O[C@@H]2O[C@H](CO)[C@@H](O)[C@H](O)[C@H]2O)cc1	–	7.12
CC(=O)OC[C@H]1O[C@@H](Oc2ccc(-c3nnc(-c4ccc(F)cc4)o3)cc2)[C@H](OC(C)=O)[C@@H](OC(C)=O)[C@@H]1OC(C)=O	260	54.1
O=C(N/N=C/c1cccc(Cl)c1)c1ccc(O[C@@H]2O[C@H](CO)[C@@H](O)[C@H](O)[C@H]2O)cc1	–	5.02
CC(=O)OC[C@H]1O[C@@H](Oc2ccc(-c3nnc(-c4ccc([N+](=O)[O-])cc4)o3)cc2)[C@H](OC(C)=O)[C@@H](OC(C)=O)[C@@H]1OC(C)=O	950	58
